The results in this text go back to patent publication US9487530B2, “Transient protection of normal cells during chemotherapy” (G1 Therapeutics, Inc., priority 2013, dated 2016).

One series deals with HSPCs. The series is described as follows: Bone marrow HSPC proliferation by EdU incorporation and flow cytometry. It counts as in vivo, mouse. How it is done: Mice were then sacrificed at the indicated times (0, 12, 24, 36, or 48 hours following compound administration), and bone marrow was harvested (n=3 mice per time point), as previously described (Johnson et al. J. Clin. Invest. (2010) 120(7), 2528-2536). Four hours before the bone marrow was harvested, mice were treated with 100 μg of EdU by intraperitoneal injection (Invitrogen). Bone marrow mononuclear cells were harvested and immunophenotyped using previously described methods and percent EdU positive cells were then determined (Johnson et al. J. Clin. Invest. (2010) 120(7), 2528-2536). In brief, HSPCs were identified by expression of lineage markers (Lin−), ScaI (S+), and c-Kit (K+).
Four hours before animals were sacrificed and the bone marrow was harvested, mice were treated with 100 μg of EdU by intraperitoneal injection. Three mice per group were sacrificed at 12 hours and the remaining three animals per group were sacrificed at 24 hours. Results are shown in FIG. 6A as the ratio of EdU positive cells for treated animals at 12 or 24 hour time points compared to control.
Further experiments were completed with Compound T examining dose response and longer periods of compound treatment. […] […].
Both compounds were administered at 150 mg/kg by oral gavage. One hour prior to harvesting bone marrow, EdU was IP injected to label cycling cells. Bone marrow was harvested at 12, 24, 36, and 48 hours after compound treatment and the percentage of EdU positive HSPC cells was determined at each time point.

For series [1], the system named is tHS68 cells (CDK4/6-dependent cell line). The series is described as follows: Cell cycle arrest (propidium iodide), tHS68. It counts as cell-based. As to conditions: 300 nM for 24 hours. From the text:
(§1) To test the ability of Cdk4/6 inhibitors to induce a clean G1-arrest, a cell based screening method was used consisting of two Cdk4/6-dependent cell lines (tHS68 and WM2664; Rb-positive) and one Cdk4/6-independent (A2058; Rb-negative) cell line. […] At the conclusion of the experiment, cells were harvested, fixed, and stained with propidium iodide (a DNA intercalator), which fluoresces strongly red (emission maximum 637 nm) when excited by 488 nm light. Samples were run on Dako Cyan flow cytometer and >10,000 events were collected for each sample. Data were analyzed using FlowJo 2.2 software developed by TreeStar, Inc.

The test system of series [2] is Rb phosphorylation at Ser780 and Ser807/811. The experiment in a line: Rb phosphorylation western blot. It counts as cell-based. As to conditions: 300 nM; Rb-dependent cell lines (tHS68, WM2664); by 16 hours post exposure. How it is done:
The Cdk4/6-cyclin D complex is essential for progression from G1 to the S-phase of the DNA cell cycle. This complex phosphorylates the retinoblastoma tumor suppressor protein (Rb). […] Samples were lysed and protein was assayed by western blot analysis. Rb phosphorylation was measured at two sites targeted by the Cdk4/6-cyclin D complex, Ser780 and Ser807/811 using species specific antibodies.

Series [3] is described as follows: Mouse pharmacokinetics, oral gavage and intravenous. It counts as in vivo.
For series [4], the system named is whole bone marrow, HSPC and differentiated hematopoietic cells. The series is described as follows: EdU incorporation in mouse hematopoietic cell lineages. Particulars: 150 mg/kg oral gavage; for inhibition at 150 mg/kg: Mus musculus. It counts as in vivo. The protocol: Ten-hours later, all mice were given a single i.p. injection of 100 mcg EdU (5-ethynyl-2′-deoxyuridine) to label cells in S-phase of the cell cycle. All treated mice were euthanized 2 hours after EdU injection, bone marrow cells were harvested and processed for flow cytometric analysis of EdU-incorporation (FIG. 13).

Series [5] concerns A2058 cells (CDK4/6-independent cell line). The series is described as follows: Cell cycle arrest (propidium iodide), A2058. It counts as cell-based. As to conditions: 300 nM for 24 hours.
Description: as §1

Another series concerns blood cell counts. The series is described as follows: 5FU-induced myelosuppression, repeated cycles. It counts as in vivo, mouse. As to conditions: 150 mg/kg oral + 5FU 150 mg/kg every 21 days, 3 cycles; Day 10 of third cycle. The text has this:
This was repeated every 21 days for 3 cycles. Blood samples were taken for hematology analysis on Day 10 of Cycles 1-3.

For series [6], the system named is Rb-positive cell line (WM2664 or tHS68). The series is described as follows: EdU proliferation, RB-intact Cdk4/6-dependent cell line. It counts as cell-based. As to conditions: 24 hours treatment. How it is done: The effect of Cdk4/6 inhibition on proliferation was measured by EdU incorporation. An RB-intact, Cdk4/6-dependent cell line (WM2664 or tHS68) and a panel of RB-negative SCLC cell lines (H69, H82, H209, H345, NCI417, or SHP-77) were analyzed for growth inhibition by the various CDK4/6 inhibitors.

As for `CN1CCN(c2ccc(Nc3ncc4cc5n(c4n3)C3(CCCCC3)CNC5=O)nc2)CC1` [T, 2′-((5-(4-methylpiperazin-1-yl)pyridin-2-yl)amino)-7′,8′-dihydro-6′H-spiro[cyclohexane-1,9′-pyrazino[1′,2′:1,5]pyrrolo[2,3-d]pyrimidin]-6′-one], the “EdU incorporation into HSPCs compared to control” value with HSPCs (150 mg/kg oral gavage, 12 and 24 hours, FIG. 6A) is recorded as “reduction in EdU incorporation at 12 hours which was starting to return to normal at 24 hours”. Further, the “time by which proliferation of HSPCs resumes” value in the series with HSPCs (single 150 mg/kg oral dose, FIG. 7) is not above 24 h. Moreover, the figures for the S-phase peak entry in series [1] and in series [5] were “causes a loss of the S-phase peak” and “does not cause a loss of the S-phase peak”, respectively. Besides, the Rb phosphorylation result in series [2] is reported as “blocks Rb phosphorylation”. For the same compound, the “F (oral bioavailability)” value in series [3] stood at 80%. In addition, the “reduction in EdU+ cell frequencies” value in series [4] (B cell progenitors) is listed as more than 80%; in series [4] (T cell progenitors), more than 99%. Besides, the “reduction in EdU+ cell frequency” value in series [4] (CMP, GMP, MEP and CLP) was 76-92%; in series [4] (Mac1+G1+ myeloid cells), 46%; in series [4] (Ter119+ erythroid cells), 58%. Also, in series [4] (unfractionated whole bone marrow cells), the “reduction of EdU+ cell frequency” value was approximately 70%. Also, the inhibition at 150 mg/kg in series [4] (Hematopoietic stem cell, hematopoietic stem cells (HSC)) came to 74%; in series [4] (multipotent progenitors (MPP)), 90%. Moreover, the “myelosuppression with repeated 5FU” value with blood cell counts is reported as “reduced the myelosuppression”. For the same compound, in series [6], the “proliferation (cells in S-phase by EdU)” value is “inhibits”.
